According to ChEMBL document CHEMBL1629514, “Synthesis, biological activity, and evaluation of the mode of action of novel antitubercular benzofurobenzopyrans substituted on A ring” (Eur J Med Chem, 2010):
In brackets after ≈: the same amount, converted by molar mass.

Tested on: Mycobacterium tuberculosis
Test: Antimycobacterial activity against Mycobacterium bovis BCG after 6 days by Microdilution Resazurin assay
Assay type: functional
Conditions: variant bovis BCG, 144 h

Structure (SMILES)	MIC95
CC1(C)C=Cc2c(ccc3oc4c(O)cccc4c23)O1	94 µM (≈ 25 µg/mL)
CC1(C)C=Cc2c(ccc3c2oc2ccc4c(c23)C=CC(C)(C)O4)O1	> 300 µM
CC1(C)C=Cc2c(ccc3oc4ccc(Cl)cc4c23)O1	100 µM (≈ 28.5 µg/mL)
CC1(C)C=Cc2c(ccc3oc4cc(-c5ccc6c(c5)oc5ccc7c(c56)C=CC(C)(C)O7)ccc4c23)O1	> 200 µM
COc1ccc2oc3cc4c(cc3c2c1)OC(C)(C)C=C4	89 µM (≈ 24.9 µg/mL)
CC1(C)C=Cc2c(ccc3oc4cccc(O)c4c23)O1	94 µM (≈ 25 µg/mL)
CC1(C)C=Cc2c(ccc3oc4ccc(O)cc4c23)O1	79 µM (≈ 21 µg/mL)
COc1ccc2oc3ccc4c(c3c2c1)C=CC(C)(C)O4	89 µM (≈ 24.9 µg/mL)
CC1(C)CCc2c(ccc3oc4ccc(O)cc4c23)O1	140 µM (≈ 37.6 µg/mL)
COc1ccc2c(c1)oc1ccc3c(c12)C=CC(C)(C)O3	> 360 µM
CC1(C)C=Cc2c(ccc3oc4ccccc4c23)O1	100 µM (≈ 25 µg/mL)
COc1cccc2oc3ccc4c(c3c12)C=CC(C)(C)O4	89 µM (≈ 24.9 µg/mL)
CC1(C)C=Cc2c(ccc3oc4cc(Br)ccc4c23)O1	150 µM (≈ 49.4 µg/mL)
CC1(C)C=Cc2c(ccc3oc4cc(O)ccc4c23)O1	94 µM (≈ 25 µg/mL)
CC(=O)c1ccc2oc3ccc4c(c3c2c1)CCC(C)(C)O4	> 340 µM
COc1cccc2c1oc1ccc3c(c12)C=CC(C)(C)O3	89 µM (≈ 24.9 µg/mL)
CC1(C)C=Cc2c(ccc3oc4cccc(Cl)c4c23)O1	> 350 µM
NNC(=O)c1ccncc1 [ISONIAZID]	4.4 µM (≈ 0.603 µg/mL)
CC1(C)C=Cc2c(ccc3oc4c(Cl)cccc4c23)O1	> 350 µM
